In patent US20250346556A1, “IMPROVEMENTS IN OR RELATING TO ORGANIC COMPOUNDS” (Givaudan SA, priority 2019, published 2025):

Legend:
Assay type in all cases: in vivo
[1] = Taste evaluation, comparison with MSG, by 5 trained panellists
Procedure: An aqueous NaCl solution (0.5% by weight) was prepared. To this base was added: • a) 30 ppm of the compound Ia (sample 6a); • b) 200 ppm of MSG (sample 6b, benchmark).
The tastes of the two samples 6a and 6b have been evaluated by 5 trained panellists. They were asked to rate the intensity of sample 6a as difference to sample 6b and to describe the overall effect. Typically, the following descriptors are used to describe the effect: umami, salty, bitter, overall sweet.

[2] = Taste evaluation, comparison with further derivatives, by 5 trained panellists; settings: 20 ppm in aqueous NaCl solution (0.5% by weight); compared with 20 ppm compound Ia
Procedure: An aqueous NaCl solution (0.5% by weight) was prepared. To this base was added: • a) 20 ppm of the compound Ia (sample 7a); • b) 20 ppm of the compound Ib (sample 7b); • c) 20 ppm of the compound Ic (sample 7c).
The tastes of the three samples 7a, 7b and 7c have been evaluated by 5 trained panellists.

[3] = Taste evaluation of amide ester analogues by four experienced tasters; settings: 20 ppm in aqueous NaCl (0.5% by weight) and MSG (0.05% by weight)
Procedure: An aqueous solution of NaCl (0.5% by weight) and MSG (0.05% by weight) was prepared. To this base was added: • a) 20 ppm of the mixture of the compound (Id+Ie) in a ratio 1:2 (sample 8a); • b) 20 ppm of the compound If (sample 8b).
A group of four experienced tasters compared the samples 8a and 8b with the pure base.

## C/C=C(\C)C(=O)NCCCCNC(=O)C=Cc1ccccc1 [compound Ia, (E)-N-(4-cinnamamidobutyl)-2-methylbut-2-enamide]
[1]; 30 ppm in 0.5% NaCl versus 200 ppm MSG (sample 6b)
  overall preference: preferred over sample 6b
[1]; 30 ppm in 0.5% NaCl versus 200 ppm MSG (sample 6b, benchmark)
  umami on bitter level versus benchmark: a little higher than benchmark
[1]; 30 ppm in aqueous NaCl solution (0.5% by weight), 5 trained panellists
  taste description: umami, brothy and longlasting

## C/C=C(\C)C(=O)NCCCCNC(=O)/C=C/c1ccc(OC)cc1 [compound Ib, (E)-N-(4-((E)-3-(4-methoxyphenyl)acrylamido)butyl)-2-methylbut-2-enamide]
[2]
  taste description in comparison to sample 7a: more umami, stronger and more lingering, more sweet, but having an off note, animalic, floral sweet

## C/C=C(\C)C(=O)NCCCCNC(=O)c1ccc(OC)cc1 [compound Ic, (E)-4-methoxy-N-(4-(2-methylbut-2-enamido)butyl)benzamide]
[2]
  taste description in comparison to sample 7a: more umami and cleaner umami than sample 7a

## C/C=C(\C)C(=O)NCCCCOC(=O)C=Cc1ccccc1 [compound If, 4-((E)-2-methylbut-2-enamido)butyl cinnamate]
[3]
  additional taste description: a pleasant taste experience
[3]; four tasters, unanimous
  umami compared with the pure base: more umami than the base
